Laboratory results reported in US11173151B2, “Substituted triazole derivatives and uses thereof” (BAYER AKTIENGESELLSCHAFT, priority 2017, dated 2021).
Read-outs that look alike come from different tables or passages of the source.

Key:
human V1a receptor = target: T1, human V1a receptor (Homo sapiens, UniProt P37288); assay: Cellular in vitro assay for determining vasopressin receptor activity, V1a receptor cell line (CHO, aequorin luminescence); assay type: cell-based; details: for IC50: CHO cell line transfected with human V1a receptor, [Arg]-vasopressin at EC50 concentration, read-out: IC50 hV1a; for ratio IC50 hV2/hV1a: selectivity ratio IC50 hV2 / IC50 hV1a
T1 construct: expressed in transfected cells; host or cells: CHO K1 (ATCC), also stably transfected with a modified aequorin
T1 sequence (P37288 whole entry): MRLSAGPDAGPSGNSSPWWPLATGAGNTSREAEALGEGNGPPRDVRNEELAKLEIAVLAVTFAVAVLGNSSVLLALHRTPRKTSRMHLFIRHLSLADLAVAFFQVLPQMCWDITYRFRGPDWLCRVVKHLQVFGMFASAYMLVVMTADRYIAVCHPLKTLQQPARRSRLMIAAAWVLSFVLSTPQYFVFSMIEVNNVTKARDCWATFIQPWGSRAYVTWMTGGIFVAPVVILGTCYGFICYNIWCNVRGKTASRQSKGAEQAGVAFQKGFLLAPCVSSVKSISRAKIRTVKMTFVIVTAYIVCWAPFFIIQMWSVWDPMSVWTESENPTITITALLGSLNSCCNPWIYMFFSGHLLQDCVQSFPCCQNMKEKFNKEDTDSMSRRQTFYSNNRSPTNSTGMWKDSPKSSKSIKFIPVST
Outline: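 CHO K1/aequorin cells, coelenterazine 5 μg/ml o/n; cpd 10 min; [Arg]-vasopressin at EC50; luminescence read immediately; IC50.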

human V2 receptor = target: T2, human V2 receptor (Homo sapiens, UniProt P30518); assay: Cellular in vitro assay for determining vasopressin receptor activity, V2 receptor cell line (CHO, CRE-luciferase); assay type: cell-based; details: CHO cell line transfected with human V2 receptor, [Arg8]-vasopressin at EC50 concentration, read-out: IC50 hV2
T2 construct: expressed in transfected cells; host or cells: CHO K1 (ATCC) expressing firefly luciferase under a CRE-responsive promoter
T2 sequence (P30518 whole entry): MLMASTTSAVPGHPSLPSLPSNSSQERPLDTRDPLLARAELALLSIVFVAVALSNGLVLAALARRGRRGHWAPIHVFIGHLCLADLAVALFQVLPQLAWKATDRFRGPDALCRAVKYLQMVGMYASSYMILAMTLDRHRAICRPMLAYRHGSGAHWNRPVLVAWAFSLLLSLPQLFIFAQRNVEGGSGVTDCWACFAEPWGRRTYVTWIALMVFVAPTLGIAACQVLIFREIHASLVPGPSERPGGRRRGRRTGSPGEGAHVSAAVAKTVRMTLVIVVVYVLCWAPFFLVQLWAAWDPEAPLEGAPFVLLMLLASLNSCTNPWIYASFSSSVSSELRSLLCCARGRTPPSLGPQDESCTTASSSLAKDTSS

| SMILES | IC50 (human V1a receptor) [nM] | ratio IC50 hV2/hV1a (human V1a receptor) | IC50 (human V2 receptor; 3 hours) [nM] | IC50 (human V2 receptor) [nM] |
| --- | --- | --- | --- | --- |
| O=C(Nc1ncccc1-n1cnc(Cn2nc(-c3ccc(Cl)cc3)n(C[C@H](O)C(F)(F)F)c2=O)n1)C1CCC1 [Example 115] | 31 | 15.8 | 490 |  |
| O=C(c1ccccc1-n1cnc(Cn2nc(-c3ccc(Cl)cc3)n(C[C@H](O)C(F)(F)F)c2=O)n1)N1CCC(F)(F)CC1 [Example 175, 5-(4-Chlorophenyl)-2-[(1-{2-[(4,4-difluoropiperidin-1-yl)carbonyl]phenyl}-1H-1,2,4-triazol-3-yl)methyl]-4-[(2S)-3,3,3-trifluoro-2-hydroxypropyl]-2,4-dihydro-3H-1,2,4-triazol-3-one] | 10.3 | 150.7 | 1540 |  |
| CC1(O)CCN(C(=O)c2ccccc2-n2cnc(Cn3nc(-c4ccc(Cl)cc4)n(C[C@H](O)C(F)(F)F)c3=O)n2)C1 (mixture of isomers) [Example 183, 5-(4-Chlorophenyl)-2-{[1-(2-{[3-hydroxy-3-methylpyrrolidin-1-yl]carbonyl}phenyl)-1H-1,2,4-triazol-3-yl]methyl}-4-[(2S)-3,3,3-trifluoro-2-hydroxypropyl]-2,4-dihydro-3H-1,2,4-triazol-3-one] | 88 | 39.8 | 3500 |  |
| Cc1cc(NC(=O)c2ccccc2-n2cnc(Cn3nc(-c4ccc(Cl)cc4)n(C[C@H](O)C(F)(F)F)c3=O)n2)n(C)n1 [Example 213, 2-[3-({3-(4-Chlorophenyl)-5-oxo-4-[(2S)-3,3,3-trifluoro-2-hydroxypropyl]-4,5-dihydro-1H-1,2,4-triazol-1-yl}methyl)-1H-1,2,4-triazol-1-yl]-N-(1,3-dimethyl-1H-pyrazol-5-yl)benzamide] | 7.55 | 178.1 | 1340 |  |
| O=C(Nc1ncccc1-n1cnc(Cn2nc(-c3ccc(Cl)cc3)n(C[C@H](O)C(F)(F)F)c2=O)n1)C1CC1 [Example 83, N-{3-[3-({3-(4-Chlorophenyl)-5-oxo-4-[(2S)-3,3,3-trifluoro-2-hydroxypropyl]-4,5-dihydro-1H-1,2,4-triazol-1-yl}methyl)-1H-1,2,4-triazol-1-yl]pyridin-2-yl}cyclopropanecarboxamide] | 5.35 | 106.5 | 570 |  |
| O=c1n(Cc2ncn(-c3cccnc3NCC3CS(=O)(=O)C3)n2)nc(-c2ccc(Cl)cc2)n1C[C@H](O)C(F)(F)F [Example 72, 5-(4-Chlorophenyl)-2-{[1-(2-{[(1,1-dioxidothietan-3-yl)methyl]amino}pyridin-3-yl)-1H-1,2,4-triazol-3-yl]methyl}-4-[(2S)-3,3,3-trifluoro-2-hydroxypropyl]-2,4-dihydro-3H-1,2,4-triazol-3-one] | 2050 | 15.6 | 32000 |  |
| O=C(CC1CC1)Nc1ncccc1-n1cnc(Cn2nc(-c3ccc(Cl)cc3)n(C[C@H](O)C(F)(F)F)c2=O)n1 [Example 87, N-{3-[3-({3-(4-Chlorophenyl)-5-oxo-4-[(2S)-3,3,3-trifluoro-2-hydroxypropyl]-4,5-dihydro-1H-1,2,4-triazol-1-yl}methyl)-1H-1,2,4-triazol-1-yl]pyridin-2-yl}-2-cyclopropylacetamide] | 4.8 | 228.1 | 1100 |  |

Now from value to compound:

| IC50 (human V1a receptor) [nM] | ratio IC50 hV2/hV1a (human V1a receptor) | IC50 (human V2 receptor; 3 hours) [nM] | IC50 (human V2 receptor) [nM] | SMILES |
| --- | --- | --- | --- | --- |
| 70.5 |  | 845 |  | O=C(c1cccc(Cl)c1-n1cnc(Cn2nc(-c3ccc(Cl)cc3)n(C[C@H](O)C(F)(F)F)c2=O)n1)N1CCC(O)(C(F)(F)F)C1 (mixture of isomers) [Example 379, 2-{[1-(2-Chloro-6-{[hydroxy-3-(trifluoromethyl)pyrrolidin-1-yl]carbonyl}phenyl)-1H-1,2,4-triazol-3-yl]methyl}-5-(4-chlorophenyl)-4-[(2S)-3,3,3-trifluoro-2-hydroxypropyl]-2,4-dihydro-3H-1,2,4-triazol-3-one] |
| 235 | 136.2 |  | 32000 | O=C(c1ncccc1-n1cnc(Cn2nc(-c3ccc(Cl)cc3)n(C[C@@H](O)C(F)(F)F)c2=O)n1)N1CCC(F)(F)C1 [Example 463, 5-(4-Chlorophenyl)-2-[(1-{2-[(3,3-difluoropyrrolidin-1-yl)carbonyl]pyridin-3-yl}-1H-1,2,4-triazol-3-yl)methyl]-4-[(2R)-3,3,3-trifluoro-2-hydroxypropyl]-2,4-dihydro-3H-1,2,4-triazol-3-one] |
| 710 | 29.6 | 21000 |  | CC1(C)CN(C(=O)c2cccc(Cl)c2-n2cnc(Cn3nc(-c4ccc(Cl)cc4)n(C[C@H](O)C(F)(F)F)c3=O)n2)CCO1 [Example 375, 2-[(1-{2-Chloro-6-[(2,2-dimethylmorpholin-4-yl)carbonyl]phenyl}-1H-1,2,4-triazol-3-yl)methyl]-5-(4-chlorophenyl)-4-[(2S)-3,3,3-trifluoro-2-hydroxypropyl]-2,4-dihydro-3H-1,2,4-triazol-3-one] |
| 24 | 937.5 |  | 22500 | CC1(C)COCCN1C(=O)c1ncccc1-n1cnc(Cn2nc(-c3ccc(Cl)cc3)n(C[C@H](O)C(F)(F)F)c2=O)n1 [Example 474, 5-(4-Chlorophenyl)-2-[(1-{2-[(3,3-dimethylmorpholin-4-yl)carbonyl]pyridin-3-yl}-1H-1,2,4-triazol-3-yl)methyl]-4-[(2S)-3,3,3-trifluoro-2-hydroxypropyl]-2,4-dihydro-3H-1,2,4-triazol-3-one] |
| 2.45 | 771.4 | 1890 |  | CC(C)CN(C)C(=O)c1ccccc1-n1cnc(Cn2nc(-c3ccc(Cl)cc3)n(C[C@H](O)C(F)(F)F)c2=O)n1 [Example 356, 2-[3-({3-(4-Chlorophenyl)-5-oxo-4-[(2S)-3,3,3-trifluoro-2-hydroxypropyl]-4,5-dihydro-1H-1,2,4-triazol-1-yl}methyl)-1H-1,2,4-triazol-1-yl]-N-methyl-N-(2-methylpropyl)benzamide] |
| 9400 | 0.7 |  | 6550 | CC1(NC(=O)c2cccnc2-n2nc(Cn3nc(-c4ccc(Cl)cc4)n(C[C@H](O)C(F)(F)F)c3=O)nc2C(=O)N2CCNC(=O)C2)CC1 [Example 525, 2-{3-({3-(4-Chlorophenyl)-5-oxo-4-[(2S)-3,3,3-trifluoro-2-hydroxypropyl]-4,5-dihydro-1H-1,2,4-triazol-1-yl}methyl)-5-[(3-oxopiperazin-1-yl)carbonyl]-1H-1,2,4-triazol-1-yl}-N-(1-methylcyclopropyl)pyridine-3-carboxamide] |
| 72 | 96.5 | 6950 |  | O=C(N[C@H]1C[C@H]1F)c1cccc(Cl)c1-n1cnc(Cn2nc(-c3ccc(Cl)cc3)n(C[C@@H](O)C(F)(F)F)c2=O)n1 (racemic) [Example 397, 3-Chloro-2-[3-({3-(4-chlorophenyl)-5-oxo-4-[(2R)-3,3,3-trifluoro-2-hydroxypropyl]-4,5-dihydro-1H-1,2,4-triazol-1-yl}methyl)-1H-1,2,4-triazol-1-yl]-N-[2-fluorocyclopropyl]benzamide] |
| 140 | 14.3 |  | 2000 | O=C(NCC(F)(F)F)c1cccc(C(F)(F)F)c1-n1cnc(Cn2nc(-c3ccc(Cl)cc3)n(C[C@H](O)C(F)(F)F)c2=O)n1 [Example 412, 2-[3-({3-(4-Chlorophenyl)-5-oxo-4-[(2S)-3,3,3-trifluoro-2-hydroxypropyl]-4,5-dihydro-1H-1,2,4-triazol-1-yl}methyl)-1H-1,2,4-triazol-1-yl]-N-(2,2,2-trifluoroethyl)-3-(trifluoromethyl)benzamide] |
